Experiment [1] deals with T1, Cyclin-dependent kinase 2 (Homo sapiens, UniProt P24941).
The target of experiment [2] is T2, Epidermal growth factor receptor (Homo sapiens, UniProt P00533).
Experiment [3] concerns the target T1, Cyclin-dependent kinase 2. In words: Inhibition of CDK2 (unknown origin) by luminescence kinase assay.
Experiment [4] addresses T2, Epidermal growth factor receptor. In words: Inhibition of EGFR (unknown origin) using Poly (Glu, Tyr) as substrate incubated for 60 mins in presence of ATP by Kinase-Glo Plus luminescence kinase assay relative to control.
Experiment [5] deals with T3, Cyclin-dependent kinase 9 (Homo sapiens, UniProt P50750). In words: Inhibition of CDK9 (unknown origin).
The subject of experiment [6] is MCF7. In words: Cytotoxicity against human MCF7 cells assessed as reduction in cell growth incubated for 72 hrs by MTT assay. In kind it is functional, cell-based. To be noted: MCF7, 72 h.
The test system of experiment [7] is MDA-MB-231. In words: Cytotoxicity against human MDA-MB-231 cells assessed as reduction in cell growth incubated for 72 hrs by MTT assay. In kind it is functional, cell-based. To be noted: MDA-MB-231, 72 h. A general note: Tetrazolium dyes change colour on reduction, which living cells bring about.
Another experiment addresses Aurora kinase A (Homo sapiens, UniProt O14965). In words: Inhibition of Aurora A (unknown origin).
For experiment [8], the target named is Cyclin-dependent kinase 5 (Homo sapiens, UniProt Q00535).
Description: Inhibition of CDK5 (unknown origin)
The target of another experiment is Histone deacetylase 1 (Homo sapiens, UniProt Q13547).
In experiment [9] the target is Cyclin-dependent kinase 7 (Homo sapiens, UniProt P50613). In words: Inhibition of CDK7 (unknown origin).
Experiment [10] concerns the target T1, Cyclin-dependent kinase 2. The source holds these as a separate data set.
Description: Inhibition of CDK2 (unknown origin) by mobility shift assay
The next experiment relates to HeLa. In words: Antiproliferative activity against human HeLa cells. Format: functional, cell-based.
Experiment [11] is described as follows: Antiproliferative activity against human PC-3 cells. Format: functional, cell-based.
For experiment [12], the system named is SK-OV-3. In words: Antiproliferative activity against human SK-OV-3 cells. In kind it is functional, cell-based.
In experiment [13] the test system is A549. In words: Antiproliferative activity against human A549 cells. Format: functional, cell-based.
Experiment [14] has as its target T4, Cyclin-dependent kinase 4 (Homo sapiens, UniProt P11802). In words: Inhibition of human CDK4 extracted from baculovirus infected Sf9 insect cells incubated for 1 hrs in presence of ATP by liquid scintillation counter analysis.
Experiment [15] has as its target Receptor-type tyrosine-protein kinase FLT3 (Homo sapiens, UniProt P36888). In words: Inhibition human recombinant FLT3.
Experiment [16] concerns the target Extracellular calcium-sensing receptor (Homo sapiens, UniProt P41180). In words: Inhibition of CASR (unknown origin).
For experiment [17], the target named is Amine oxidase [flavin-containing] A (Homo sapiens, UniProt P21397). In words: Inhibition of MAO-A (unknown origin) measured by MAO-GloTM method.
Experiment [18] concerns A549. In words: Cytotoxicity against human A549 cells assessed as reduction in cell growth incubated fro 72 hrs by MTT assay. Format: functional, cell-based. The following applies: A549, 72 h.
Another experiment deals with HepG2. In words: Cytotoxicity against human HepG2 cells assessed as reduction in cell growth incubated fro 72 hrs by MTT assay. Format: functional, cell-based. The following applies: HepG2, 72 h.
For experiment [19], the system named is MCF7. In words: Cytotoxicity against human MCF7 cells assessed as reduction in cell growth incubated fro 72 hrs by MTT assay. The following applies: MCF7, 72 h. In kind it is functional, cell-based.
In experiment [20] the target is T4, Cyclin-dependent kinase 4. In words: Inhibition of CDK4 (unknown origin) at 1 uM relative to control.
Another experiment deals with HCT-116. In words: Cytotoxicity against human HCT-116 cells assessed as reduction in cell growth incubated fro 72 hrs by MTT assay. In kind it is functional, cell-based. To be noted: HCT-116, 72 h.
The target of experiment [21] is T5, Poly [ADP-ribose] polymerase 1 (Homo sapiens, UniProt P09874). In words: Inhibition of PARP-1 (unknown origin) incubated for 60 mins by chemiluminescent assay.
The test system of experiment [22] is MDA-MB-231. In words: Cytotoxicity against human MDA-MB-231 cells assessed as cell growth inhibition. Format: functional, cell-based.
The subject of the next experiment is MDA-MB-468. In words: Cytotoxicity against human MDA-MB-468 cells assessed as cell growth inhibition. Format: functional, cell-based.
Experiment [23] concerns the target T5, Poly [ADP-ribose] polymerase 1. In words: Inhibition of PARP1 (unknown origin).
The subject of a further experiment is BT-549. In words: Cytotoxicity against human BT-549 cells assessed as cell growth inhibition. Format: functional, cell-based.
Experiment [24] addresses Cyclin-dependent kinase 6 (Homo sapiens, UniProt Q00534).
Description: Inhibition of CDK6 (unknown origin))
Experiment [25] addresses Cyclin-dependent kinase 1/cyclin B1 (Homo sapiens) (UniProt P06493+P14635). In words: Inhibition of CDK1/cyclin B1 (unknown origin) at 10 nM relative to control. In kind it is protein-complex assay.
Experiment [26] addresses Receptor tyrosine-protein kinase erbB-2 (Homo sapiens) (UniProt P04626). In words: Inhibition of HER2 (unknown origin) at 10 uM in presence of ATP relative to control.
In the next experiment the test system is HT-29. In words: Antiproliferative activity against human HT-29 cells assessed as reduction in cell viability incubated for 24 hrs by MTT assay. In kind it is functional, cell-based. To be noted: HT-29, 24 h.
In the next experiment the test system is PANC-1. In words: Antiproliferative activity against human PANC-1 cells assessed as reduction in cell viability incubated for 24 hrs by MTT assay. In kind it is functional, cell-based. To be noted: PANC-1, 24 h.
Experiment [27] relates to MCF7. In words: Antiproliferative activity against human MCF7 cells assessed as reduction in cell viability incubated for 24 hrs by MTT assay. In kind it is functional, cell-based. To be noted: MCF7, 24 h.
In experiment [28] the test system is A549. In words: Antiproliferative activity against human A549 cells assessed as reduction in cell viability incubated for 24 hrs by MTT assay. In kind it is functional, cell-based. The following applies: A549, 24 h.
Another experiment concerns the target Histone deacetylase 2 (Homo sapiens, UniProt Q92769).
The target in experiment [29] is T3, Cyclin-dependent kinase 9.
Description: Inhibition of CDK9 (unknown origin) by ADP-Glo kinase assay
Experiment [30] relates to SK-OV-3. In words: Cytotoxicity against human SK-OV-3 cells assessed as inhibition of cell growth incubated for 72 hrs by MTT assay. Format: functional, cell-based. The following applies: SK-OV-3, 72 h.
The subject of experiment [31] is MDA-MB-231. In words: Cytotoxicity against human MDA-MB-231 cells. In kind it is functional, cell-based.
The test system of the next experiment is OVCAR-5. In words: Antiproliferative activity against human OVCAR-5 cells assessed as growth inhibition incubated for 48 hrs by SRB assay. To be noted: OVCAR-5, 48 h. In kind it is functional, cell-based. A general note: Sulforhodamine B stains cellular protein and so reports cell mass.
Another experiment deals with SUM-159-PT. In words: Cytotoxicity against human SUM159 cells. In kind it is functional, cell-based.
In another experiment the test system is K562. In words: Growth inhibition of human K562 cells incubated for 72 hrs by SRB assay. Format: functional.
Experiment [32] deals with MCF7. In words: Growth inhibition of human MCF-7 cells incubated for 72 hrs by SRB assay. Format: functional.

Each structure is given as a SMILES string.

T4 sequence (P11802 whole entry): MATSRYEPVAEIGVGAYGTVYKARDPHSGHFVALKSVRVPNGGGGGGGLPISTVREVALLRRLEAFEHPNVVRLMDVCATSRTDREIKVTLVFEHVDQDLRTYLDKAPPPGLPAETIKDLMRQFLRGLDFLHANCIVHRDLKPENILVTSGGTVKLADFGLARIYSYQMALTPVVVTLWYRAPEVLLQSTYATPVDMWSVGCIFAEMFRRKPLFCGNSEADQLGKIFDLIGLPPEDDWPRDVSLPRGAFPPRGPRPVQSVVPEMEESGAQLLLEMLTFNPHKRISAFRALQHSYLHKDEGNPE
T3 sequence (P50750 whole entry): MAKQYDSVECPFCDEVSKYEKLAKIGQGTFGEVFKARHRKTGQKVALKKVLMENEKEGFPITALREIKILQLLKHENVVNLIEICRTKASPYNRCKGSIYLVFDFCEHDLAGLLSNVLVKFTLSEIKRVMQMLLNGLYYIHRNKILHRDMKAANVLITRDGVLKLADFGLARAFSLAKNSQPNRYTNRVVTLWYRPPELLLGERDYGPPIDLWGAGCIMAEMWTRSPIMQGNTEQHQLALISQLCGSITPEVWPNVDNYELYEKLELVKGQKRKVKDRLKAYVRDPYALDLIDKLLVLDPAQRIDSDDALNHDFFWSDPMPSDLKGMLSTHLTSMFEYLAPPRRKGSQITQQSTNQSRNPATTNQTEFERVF
T2 sequence (P00533 whole entry): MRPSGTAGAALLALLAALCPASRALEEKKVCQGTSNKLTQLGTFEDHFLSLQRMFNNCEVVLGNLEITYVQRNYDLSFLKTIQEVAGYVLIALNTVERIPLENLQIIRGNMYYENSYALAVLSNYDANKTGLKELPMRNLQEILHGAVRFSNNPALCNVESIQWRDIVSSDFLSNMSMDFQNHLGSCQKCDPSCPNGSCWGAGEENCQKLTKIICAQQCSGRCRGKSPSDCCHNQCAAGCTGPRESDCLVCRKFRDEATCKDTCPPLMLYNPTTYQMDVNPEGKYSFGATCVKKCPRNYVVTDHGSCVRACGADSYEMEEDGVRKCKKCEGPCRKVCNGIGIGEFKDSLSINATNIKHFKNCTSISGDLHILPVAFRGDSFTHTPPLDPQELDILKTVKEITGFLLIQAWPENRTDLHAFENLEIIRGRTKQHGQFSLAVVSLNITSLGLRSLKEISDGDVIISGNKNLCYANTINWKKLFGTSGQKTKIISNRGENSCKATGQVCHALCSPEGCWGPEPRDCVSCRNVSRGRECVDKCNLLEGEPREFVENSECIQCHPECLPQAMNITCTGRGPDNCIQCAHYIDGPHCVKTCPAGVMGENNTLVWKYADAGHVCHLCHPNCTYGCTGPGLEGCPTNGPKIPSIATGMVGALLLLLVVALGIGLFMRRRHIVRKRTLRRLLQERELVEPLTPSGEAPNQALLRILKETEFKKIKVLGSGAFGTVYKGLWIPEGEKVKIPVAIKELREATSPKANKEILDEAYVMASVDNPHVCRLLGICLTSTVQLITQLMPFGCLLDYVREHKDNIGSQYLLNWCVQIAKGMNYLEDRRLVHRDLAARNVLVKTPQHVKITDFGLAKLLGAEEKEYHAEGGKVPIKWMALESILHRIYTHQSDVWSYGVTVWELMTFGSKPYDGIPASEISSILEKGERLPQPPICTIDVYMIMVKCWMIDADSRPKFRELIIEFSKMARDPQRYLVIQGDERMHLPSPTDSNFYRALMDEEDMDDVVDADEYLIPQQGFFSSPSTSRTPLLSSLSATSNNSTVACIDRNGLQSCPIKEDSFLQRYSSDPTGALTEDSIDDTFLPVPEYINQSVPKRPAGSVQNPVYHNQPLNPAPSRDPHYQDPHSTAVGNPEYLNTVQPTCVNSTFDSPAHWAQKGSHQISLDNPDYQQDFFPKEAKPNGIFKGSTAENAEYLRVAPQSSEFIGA
Chain of Cyclin-dependent kinase 7 (P50613 whole entry): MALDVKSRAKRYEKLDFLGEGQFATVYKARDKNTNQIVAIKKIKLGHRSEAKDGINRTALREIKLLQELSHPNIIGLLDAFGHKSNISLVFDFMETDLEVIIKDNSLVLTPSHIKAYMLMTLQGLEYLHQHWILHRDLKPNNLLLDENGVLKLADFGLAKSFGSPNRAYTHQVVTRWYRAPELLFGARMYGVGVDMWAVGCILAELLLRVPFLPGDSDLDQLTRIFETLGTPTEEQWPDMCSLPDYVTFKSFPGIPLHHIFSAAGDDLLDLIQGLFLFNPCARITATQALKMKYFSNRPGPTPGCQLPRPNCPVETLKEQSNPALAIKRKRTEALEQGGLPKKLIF
Chain of Receptor-type tyrosine-protein kinase FLT3 (P36888 whole entry): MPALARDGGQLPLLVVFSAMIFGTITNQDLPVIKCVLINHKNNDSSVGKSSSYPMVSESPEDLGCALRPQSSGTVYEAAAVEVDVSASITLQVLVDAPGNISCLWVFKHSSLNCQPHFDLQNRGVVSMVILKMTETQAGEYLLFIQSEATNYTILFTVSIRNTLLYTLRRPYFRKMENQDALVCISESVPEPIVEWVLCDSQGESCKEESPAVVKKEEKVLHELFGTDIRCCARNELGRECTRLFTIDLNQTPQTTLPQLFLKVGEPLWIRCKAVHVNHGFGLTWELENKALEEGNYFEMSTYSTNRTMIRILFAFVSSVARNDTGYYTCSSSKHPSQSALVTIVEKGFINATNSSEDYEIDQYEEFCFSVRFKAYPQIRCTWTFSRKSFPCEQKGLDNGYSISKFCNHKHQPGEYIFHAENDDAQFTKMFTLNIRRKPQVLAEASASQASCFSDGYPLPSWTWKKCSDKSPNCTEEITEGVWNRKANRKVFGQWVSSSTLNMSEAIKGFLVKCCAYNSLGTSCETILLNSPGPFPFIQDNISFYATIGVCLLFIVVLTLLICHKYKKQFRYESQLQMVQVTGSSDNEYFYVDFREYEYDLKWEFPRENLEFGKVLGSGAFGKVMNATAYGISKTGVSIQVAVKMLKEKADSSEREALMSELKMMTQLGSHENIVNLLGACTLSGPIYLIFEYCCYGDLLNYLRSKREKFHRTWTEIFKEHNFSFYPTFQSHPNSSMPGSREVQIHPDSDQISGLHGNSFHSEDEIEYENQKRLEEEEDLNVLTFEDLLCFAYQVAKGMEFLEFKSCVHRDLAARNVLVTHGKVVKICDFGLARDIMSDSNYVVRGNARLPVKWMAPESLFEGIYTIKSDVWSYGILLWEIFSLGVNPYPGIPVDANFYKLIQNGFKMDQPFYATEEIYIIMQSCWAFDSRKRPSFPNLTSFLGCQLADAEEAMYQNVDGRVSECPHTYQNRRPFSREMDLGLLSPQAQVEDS
T5 sequence (P09874 whole entry): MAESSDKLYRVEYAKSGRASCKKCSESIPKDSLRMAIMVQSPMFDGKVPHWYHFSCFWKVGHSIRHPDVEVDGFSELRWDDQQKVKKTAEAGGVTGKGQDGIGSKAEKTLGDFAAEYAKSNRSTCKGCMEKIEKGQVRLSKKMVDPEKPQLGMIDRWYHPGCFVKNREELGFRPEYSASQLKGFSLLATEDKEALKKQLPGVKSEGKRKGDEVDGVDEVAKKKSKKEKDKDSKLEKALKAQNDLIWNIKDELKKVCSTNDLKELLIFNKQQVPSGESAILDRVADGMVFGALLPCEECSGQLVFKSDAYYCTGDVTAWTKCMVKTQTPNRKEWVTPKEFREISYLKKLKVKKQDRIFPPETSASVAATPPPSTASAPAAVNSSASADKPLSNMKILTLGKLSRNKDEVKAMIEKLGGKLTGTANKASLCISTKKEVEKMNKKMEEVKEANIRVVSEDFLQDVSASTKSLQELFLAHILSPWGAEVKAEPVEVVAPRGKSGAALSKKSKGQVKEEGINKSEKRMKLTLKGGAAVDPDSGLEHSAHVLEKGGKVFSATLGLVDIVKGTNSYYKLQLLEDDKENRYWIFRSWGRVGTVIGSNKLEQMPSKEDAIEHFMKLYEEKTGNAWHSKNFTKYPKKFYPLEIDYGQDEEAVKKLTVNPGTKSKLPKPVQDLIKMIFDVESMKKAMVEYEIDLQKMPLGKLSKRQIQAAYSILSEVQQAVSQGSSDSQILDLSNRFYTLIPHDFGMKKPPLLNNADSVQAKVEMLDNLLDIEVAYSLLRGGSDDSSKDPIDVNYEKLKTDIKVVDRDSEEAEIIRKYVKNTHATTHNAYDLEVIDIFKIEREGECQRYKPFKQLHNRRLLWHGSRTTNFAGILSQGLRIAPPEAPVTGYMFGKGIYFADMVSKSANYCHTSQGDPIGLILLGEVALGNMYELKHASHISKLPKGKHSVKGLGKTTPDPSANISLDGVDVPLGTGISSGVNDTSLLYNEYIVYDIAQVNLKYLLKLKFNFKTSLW
Chain of Histone deacetylase 1 (Q13547 whole entry): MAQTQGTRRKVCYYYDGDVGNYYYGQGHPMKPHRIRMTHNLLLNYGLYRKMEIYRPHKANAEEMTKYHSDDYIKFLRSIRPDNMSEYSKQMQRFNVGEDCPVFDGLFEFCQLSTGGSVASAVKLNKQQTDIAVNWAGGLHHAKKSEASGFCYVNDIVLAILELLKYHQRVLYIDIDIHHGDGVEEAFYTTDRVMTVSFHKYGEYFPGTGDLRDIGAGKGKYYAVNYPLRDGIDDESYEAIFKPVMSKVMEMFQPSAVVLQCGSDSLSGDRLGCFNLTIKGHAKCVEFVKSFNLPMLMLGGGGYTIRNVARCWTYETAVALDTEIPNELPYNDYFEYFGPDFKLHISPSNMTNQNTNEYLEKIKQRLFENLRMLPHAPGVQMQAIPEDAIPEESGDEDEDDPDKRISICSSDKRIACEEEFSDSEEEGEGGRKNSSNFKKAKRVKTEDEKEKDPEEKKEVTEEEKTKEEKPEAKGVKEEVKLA
Chain of Cyclin-dependent kinase 6 (Q00534 whole entry): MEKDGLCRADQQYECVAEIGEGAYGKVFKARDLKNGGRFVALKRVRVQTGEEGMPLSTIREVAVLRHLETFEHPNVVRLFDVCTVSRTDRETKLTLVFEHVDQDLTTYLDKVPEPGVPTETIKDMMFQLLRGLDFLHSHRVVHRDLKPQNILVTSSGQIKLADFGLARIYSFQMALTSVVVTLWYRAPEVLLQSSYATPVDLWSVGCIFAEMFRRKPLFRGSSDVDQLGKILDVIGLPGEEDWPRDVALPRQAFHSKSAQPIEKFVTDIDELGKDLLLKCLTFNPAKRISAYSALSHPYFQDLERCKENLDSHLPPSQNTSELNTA
Description for Histone deacetylase 1: Inhibition of HDAC1 (unknown origin)
Description for Histone deacetylase 2: Inhibition of HDAC2 (unknown origin)

Broadly, the IC50 is the concentration that gives 50% inhibition. Consider `Cc1cc(C)cc(NNC(=O)[C@H]2CCCN2C(=O)Nc2ccc(Cl)cc2)c1`, for which the half-maximal inhibitory concentration (IC50) in experiment [1] was 0.015 µM; in experiment [2], 0.096 µM.
Take `O=C(c1ccc2ccccc2c1)c1cn(-c2ccccc2)nc1C1=Nn2c(S)nnc2SC1`: the IC50 stood at 0.0896 µM in experiment [3] and 0.165 µM in experiment [4].
Regarding `CCOc1ccc(C2C(C#N)=C(N)OC3C2C(C)=NN3c2ccc(Cl)cc2)cc1` (centres undefined), the figures for the IC50 in experiment [2] and in experiment [5] were 0.00021 µM and 1.26 nM, respectively.
As for `O=C(CC(=O)Nc1cccc(C(=O)Nc2cccc(Nc3ncc(Cl)c(-c4c[nH]c5ccccc45)n3)c2)c1)NO`, the values for the 50% inhibitory concentration (IC50) in the experiment on MCF7 [6] and in the experiment with MDA-MB-231 [7] were 18.1 µM and 23 µM, respectively.
In the case of `CC[C@H](CO)Nc1nc(NCc2ccccc2N)c2[nH]nc(C(C)C)c2n1`, the IC50 is 0.07 µM in experiment [1], 0.4 µM on Aurora kinase A and 0.26 µM in experiment [8].
Take `O=C(CCCCCCC(=O)Nc1cccc(C(=O)Nc2cccc(Nc3ncc(Cl)c(-c4c[nH]c5ccccc45)n3)c2)c1)NO`: the values for the IC50 (against Histone deacetylase 1; in [9]) were 0.248 µM and 0.893 µM, respectively.
In the case of `O=C1Nc2ccccc2/C1=C1/Nc2ccccc2C1=O` [INDIRUBIN], 0.003 µM corresponded to half-maximal inhibition in experiment [10] (IC50).
Turning to `CN(C)C/C=C/C(=O)Nc1cccc(C(=O)Nc2cccc(Nc3ncc(Cl)c(-c4c[nH]c5ccccc45)n3)c2)c1`, in experiment [9], the IC50 was found to be 0.019 µM.
For the molecule `Cc1n[nH]c2c1C(c1ccc(F)cc1)C(C#N)=C(N)O2` (centres undefined), the IC50 worked out at 1.9 µM in the experiment on HeLa, 2.8 µM in experiment [11], 2.03 µM in the experiment on SK-OV-3 [12] and 1.8 µM in the experiment with A549 [13].
In the case of `CCN1CCN(c2ccc(Nc3ncc(F)c(-c4cnc5cnn(C(C)C)c5c4)n3)cc2F)CC1`, the values for the concentration for half-maximal inhibition (IC50) in [14] and in [15] were 0.007 µM and 0.011 µM, respectively.
In the case of `C[C@@H](NCCCc1cccc(C(F)(F)F)c1)c1cccc2ccccc12`, in experiment [16], the 50% inhibitory concentration (IC50) stood at 2.8 µM.
Regarding `O=C(Nc1ccc2[nH]ncc2c1)c1cccc(Cl)c1Cl`, in experiment [17], the half-inhibitory concentration (IC50) was more than 10 µM.
A word on the inhibition: it is the drop in the measured response relative to a control, in per cent. With `N[C@H]1CCN(c2c3cc(-c4ccnc(NC(=O)C5CC5)c4)ccc3nc3c2[nH]c2ccccc23)C1`, the IC50 was found to be 0.145 µM in experiment [1]; 0.949 µM with A549 [18]; 1.95 µM in the experiment with HepG2; 1.12 µM in the experiment on MCF7 [19]; 0.821 µM with HCT-116. The molecule further returned an inhibition in [20] of 41.1%.
Regarding `Cc1cc(C)cc(NNC(=O)[C@H]2CCCN2C(=O)Nc2ccc(C(F)(F)F)cc2)c1`, the IC50 came to 0.023 µM in experiment [1] and 0.087 µM in experiment [2].
With `O=C(c1ccc2ccccc2c1)c1cn(-c2ccccc2)nc1C1=Nn2cnnc2SC1`, the IC50 in experiment [4] is 0.0647 µM.
`Cc1nnc2n1N=C(c1ccccc1OCC(=O)NCCCNC(=O)COc1ccccc1C1=Nn3c(C)nnc3SC1)CS2` registered an IC50 in experiment [21] of 0.00137 µM.
Turning to `CCOc1ccc(/C=C2/C(=O)N(c3ccc(Cl)cc3)N=C2C)cc1`, the IC50 turned out to be 0.00012 µM in experiment [2] and 0.077 nM in [5].
With `Cc1cc(=O)n(C2CCCC2)c2nc(NCCC3CCN(C(=O)c4cc(Cc5n[nH]c(=O)c6ccccc56)ccc4F)CC3)ncc12`, the IC50 in the experiment with MDA-MB-231 [22] came to 1.96 µM; in the experiment on MDA-MB-468 it was 2.81 µM; in experiment [23], 0.041 µM; with BT-549 it was 2.37 µM; in [24] it was 0.127 µM.
Take `O=C(Nc1ccc2c(ccn2C(=O)c2cccc(F)c2)c1)c1ccnnc1`: the figures for the inhibition in experiment [25] and in experiment [26] were 51% and 52%, respectively.
`Cc1ccc(NNC(=O)[C@H]2CCCN2C(=O)Nc2ccc(C(F)(F)F)cc2)cc1`: the IC50 with HT-29 was 4.2 µM; with PANC-1, 4.1 µM; in the experiment on MCF7 [27], 3.7 µM; with A549 [28], 3.9 µM.
At Histone deacetylase 2, `Nc1ccc(F)cc1NC(=O)c1ccc(CNC(=O)/C=C/c2cccnc2)cc1` displayed a concentration for half-maximal inhibition (IC50) of 0.093 µM.
Regarding `COC[C@@H](C)N[C@H]1CC[C@H](Nc2cc(-c3cccc(NCC4(C#N)CCOCC4)n3)c(Cl)cn2)CC1`, the half-maximal inhibitory concentration (IC50) in [29] was determined as 0.00051 µM.
On to `CCN1CCN(c2ccc(Nc3ncc(F)c(-c4cnc5cnn(C(C)C)c5c4)n3)cc2)CC1`, for which the figures for the IC50 in experiment [14] and in [15] were 0.01 µM and 0.008 µM, respectively.
Take `Cc1nc2c(F)cc(-c3nc(Nc4ccc(N5CCN(C(=O)c6cc(Cc7n[nH]c(=O)c8ccccc78)ccc6F)CC5)cn4)ncc3F)cc2n1C(C)C`: the 50% inhibitory concentration (IC50) turned out to be 0.548 µM with SK-OV-3 [30], 3.61 µM in the experiment with MDA-MB-231 [31], 0.758 µM with OVCAR-5 and 0.435 µM in the experiment on SUM-159-PT.
In [1], `O=C(Nc1cc(-c2ccc3nc4c([nH]c5ccccc54)c(N4CCOCC4)c3c2)ccn1)C1CC1` showed a 50% inhibitory concentration (IC50) of 3.91 µM. The molecule also yielded an inhibition in experiment [20] of 5.31%.
A word on the GI50: it is the concentration at which growth is held to half of that of the control. High values mean less potent growth inhibition, low ones more potent growth inhibition. On to `CCCCCCCNc1nc(NCc2ccccc2)c2n[nH]c(C(C)C)c2n1`, for which the results for the GI50 in the experiment with K562 and with MCF7 [32] were 17 µM and 21.4 µM, respectively. This molecule showed an IC50 in [1] of more than 1000 µM.

Values taken from ChEMBL document CHEMBL6134823, “Combination therapy and dual-target inhibitors based on cyclin-dependent kinases (CDKs): Emerging strategies for cancer therapy” (Eur J Med Chem, 2025).
